Tests used:
[1] = test system: Putamen; assay: Drug uptake in anesthetized cynomolgus monkey brain putamen after 185 mins postinjection; assay type: ADME, organism-based, Macaca fascicularis; conditions: in vivo
[2] = test system: Pons; assay: Drug uptake in anesthetized cynomolgus monkey brain pons after 115 mins postinjection; assay type: ADME, organism-based, Macaca fascicularis; conditions: in vivo
[3] = test system: Pons; assay: Drug uptake in anesthetized cynomolgus monkey brain pons after 175 mins postinjection; assay type: ADME, organism-based, Macaca fascicularis; conditions: in vivo
[4] = test system: Medulla; assay: Drug uptake in anesthetized cynomolgus monkey brain medulla after 0.5 mins postinjection; assay type: ADME, organism-based, Macaca fascicularis; conditions: in vivo
[5] = test system: Medulla; assay: Drug uptake in anesthetized cynomolgus monkey brain medulla after 1.5 mins postinjection; assay type: ADME, organism-based, Macaca fascicularis; conditions: in vivo, 0.025 h
[6] = test system: Medulla; assay: Drug uptake in anesthetized cynomolgus monkey brain medulla after 75 mins postinjection; assay type: ADME, organism-based, Macaca fascicularis; conditions: in vivo, 1.25 h
[7] = Ratio of drug uptake in putamen to cerebellum in anesthetized cynomolgus monkey after 6.5 mins postinjection; assay type: ADME, organism-based, Macaca fascicularis; conditions: in vivo
[8] = Ratio of drug uptake in putamen to cerebellum in anesthetized cynomolgus monkey after 9.5 mins postinjection; assay type: ADME, organism-based, Macaca fascicularis; conditions: in vivo
[9] = Ratio of drug uptake in putamen to cerebellum in anesthetized cynomolgus monkey after 45 mins postinjection; assay type: ADME, organism-based, Macaca fascicularis; conditions: in vivo, 0.75 h
[10] = Drug uptake in anesthetized cynomolgus monkey brain cerebellum after 2.5 mins postinjection; assay type: ADME, organism-based, Macaca fascicularis; conditions: in vivo
[11] = Drug uptake in anesthetized cynomolgus monkey brain cerebellum after 15.5 mins postinjection; assay type: ADME, organism-based, Macaca fascicularis; conditions: in vivo
[12] = Drug uptake in anesthetized cynomolgus monkey brain cerebellum after 18.5 mins postinjection; assay type: ADME, organism-based, Macaca fascicularis; conditions: in vivo
[13] = Drug uptake in anesthetized cynomolgus monkey brain cerebellum after 65 mins postinjection; assay type: ADME, organism-based, Macaca fascicularis; conditions: in vivo
[14] = test system: Medulla; assay: Drug uptake in anesthetized cynomolgus monkey brain medulla after 115 mins postinjection; assay type: ADME, organism-based, Macaca fascicularis; conditions: in vivo
[15] = Drug uptake in anesthetized cynomolgus monkey brain cerebellum after 225 mins postinjection; assay type: ADME, organism-based, Macaca fascicularis; conditions: in vivo, 3.75 h
[16] = Ratio of drug uptake in thalamus to cerebellum in anesthetized cynomolgus monkey after 155 mins postinjection; assay type: ADME, organism-based, Macaca fascicularis; conditions: in vivo
[17] = test system: Caudate; assay: Drug uptake in anesthetized cynomolgus monkey brain caudate after 2.5 mins postinjection; assay type: ADME, organism-based, Macaca fascicularis, Caudate nucleus; conditions: in vivo
[18] = test system: Caudate; assay: Drug uptake in anesthetized cynomolgus monkey brain caudate after 6.5 mins postinjection; assay type: ADME, organism-based, Macaca fascicularis, Caudate nucleus; conditions: in vivo
[19] = test system: Caudate; assay: Drug uptake in anesthetized cynomolgus monkey brain caudate after 95 mins postinjection; assay type: ADME, organism-based, Macaca fascicularis, Caudate nucleus; conditions: in vivo
[20] = test system: Caudate; assay: Drug uptake in anesthetized cynomolgus monkey brain caudate after 155 mins postinjection; assay type: ADME, organism-based, Macaca fascicularis, Caudate nucleus; conditions: in vivo
[21] = test system: Caudate; assay: Drug uptake in anesthetized cynomolgus monkey brain caudate after 215 mins postinjection; assay type: ADME, organism-based, Macaca fascicularis, Caudate nucleus; conditions: in vivo
[22] = Ratio of drug uptake in occipital lobe to cerebellum in anesthetized cynomolgus monkey after 12.5 mins postinjection; assay type: ADME, organism-based, Macaca fascicularis; conditions: in vivo
[23] = test system: Thalamus; assay: Drug uptake in anesthetized cynomolgus monkey brain thalamus after 45 mins postinjection; assay type: ADME, organism-based, Macaca fascicularis; design: unit not given here; conditions: in vivo, 0.75 h
[24] = test system: Putamen; assay: Drug uptake in anesthetized cynomolgus monkey brain putamen after 95 mins postinjection; assay type: ADME, organism-based, Macaca fascicularis; design: unit not given here; conditions: in vivo
[25] = test system: Putamen; assay: Drug uptake in anesthetized cynomolgus monkey brain putamen after 105 mins postinjection; assay type: ADME, organism-based, Macaca fascicularis; design: unit not given here; conditions: in vivo, 1.75 h
[26] = test system: Thalamus; assay: Drug uptake in anesthetized cynomolgus monkey brain thalamus after 95 mins postinjection; assay type: ADME, organism-based, Macaca fascicularis; design: unit not given here; conditions: in vivo
[27] = test system: Thalamus; assay: Drug uptake in anesthetized cynomolgus monkey brain thalamus after 105 mins postinjection; assay type: ADME, organism-based, Macaca fascicularis; design: unit not given here; conditions: in vivo, 1.75 h
[28] = test system: Thalamus; assay: Drug uptake in anesthetized cynomolgus monkey brain thalamus after 135 mins postinjection; assay type: ADME, organism-based, Macaca fascicularis; design: unit not given here; conditions: in vivo, 2.25 h
[29] = test system: Thalamus; assay: Drug uptake in anesthetized cynomolgus monkey brain thalamus after 225 mins postinjection; assay type: ADME, organism-based, Macaca fascicularis; design: unit not given here; conditions: in vivo, 3.75 h
[30] = test system: Midbrain; assay: Drug uptake in anesthetized cynomolgus monkey brain midbrain after 2.5 mins postinjection; assay type: ADME, organism-based, Macaca fascicularis; design: unit not given here; conditions: in vivo
[31] = test system: Midbrain; assay: Drug uptake in anesthetized cynomolgus monkey brain midbrain after 27.5 mins postinjection; assay type: ADME, organism-based, Macaca fascicularis; design: unit not given here; conditions: in vivo
[32] = test system: Midbrain; assay: Drug uptake in anesthetized cynomolgus monkey brain midbrain after 55 mins postinjection; assay type: ADME, organism-based, Macaca fascicularis; design: unit not given here; conditions: in vivo
[33] = test system: Midbrain; assay: Drug uptake in anesthetized cynomolgus monkey brain midbrain after 75 mins postinjection; assay type: ADME, organism-based, Macaca fascicularis; design: unit not given here; conditions: in vivo, 1.25 h
[34] = test system: Midbrain; assay: Drug uptake in anesthetized cynomolgus monkey brain midbrain after 125 mins postinjection; assay type: ADME, organism-based, Macaca fascicularis; design: unit not given here; conditions: in vivo

O=C(OCC[18F])C1C2CCC(CC1c1cccc(/C=C\Br)c1)N2 (centres undefined)
Drug uptake [1]: 3.68
Drug uptake [2]: 4.51
Drug uptake [3]: 3.72
Drug uptake [4]: 0
Drug uptake [5]: 0.08
Drug uptake [6]: 4.73
Ratio [7]: 1.1
Ratio [8]: 1.1
Ratio [9]: 1.3
Drug uptake [10]: 0.42
Drug uptake [11]: 3.57
Drug uptake [12]: 3.59
Drug uptake [13]: 3.5
Drug uptake [14]: 4.28
Drug uptake [15]: 1.64
Ratio [16]: 1.7
Drug uptake [17]: 0.36
Drug uptake [18]: 1.92
Drug uptake [19]: 4.15
Drug uptake [20]: 3.47
Drug uptake [21]: 2.85
Ratio [22]: 0.8
Drug uptake [23]: 4.15
Drug uptake [24]: 4.83
Drug uptake [25]: 4.82
Drug uptake [26]: 4.31
Drug uptake [27]: 4.23
Drug uptake [28]: 4.03
Drug uptake [29]: 2.95
Drug uptake [30]: 0.55
Drug uptake [31]: 4.53
Drug uptake [32]: 4.98
Drug uptake [33]: 4.96
Drug uptake [34]: 4.73

Reference: ChEMBL document CHEMBL1151757, “Synthesis, radiosynthesis, and biological evaluation of fluorine-18-labeled 2beta-carbo(fluoroalkoxy)-3beta-(3'-((Z)-2-haloethenyl)phenyl)nortropanes: candidate radioligands for in vivo imaging of the serotonin transporter with positron emission tomography” (J Med Chem, 2008)
